The record followed here is patent US20030148518A1, “Method for mass propogation of podophyllum hexandrum royle using embryo culture technique” (priority 2001, published 2003).

Experiment [1] deals with Podophyllum hexandrum zygotic embryos. Kind of experiment: Germination of excised zygotic embryos cultured on different media supplemented with Gibberellic acid. The settings on record: 2.5 μM Gibberellic acid in different media (B5, MS, WPM); excised zygotic embryos of different regimes. Here is the method:
(§1) To describe in detail, the method comprises collection of mature pods of P. hexandrum Royle from their natural habitats in the Western Himalayas at an altitude ranging from 2700 m-3500 m above mean sea level during the last week of August and first week of September. Immediately after collection, the seeds were separated from the pulp. Prior to disinfection with 0.1% Bavistin and streptomycin sulphate (0.1%) for 15 minutes, followed by a thorough washing of seeds. After a 1 minute dip in 70% alcohol and surface sterilization in 0.1% mercuric chloride for 7 minutes, all traces of mercuric chloride were finally washed off by 4-5 rinses in sterile distilled water. The surface sterilized seeds were then dissected by a sharp excision with a scalpel blade at the base of the microplyar lobe and embryos were carefully squeezed out of their micropylar groove. The embryos were cultured on B-5 (Gamborg et al., 1968) medium supplemented with 3% sucrose of pH 5.8 adjusted with 1N KOH and HCl prior to the addition of agar (0.8%) and were finally sterilized at […] for 20 minutes. All the cultures were maintained in this medium for one week at 25±2° C. in dark for embryo germination. […]

The subject of experiment [2] is Podophyllum hexandrum emblings. Kind of experiment: True leaf emergence after embling development and field transfer. The settings on record: media supplemented with 2.5 μM Gibberellic acid; after 12 weeks of field transfer. As to the method:
as §1

Consider `C=C1C[C@]23C[C@@]1(O)CC[C@H]2[C@@]12C=C[C@H](O)[C@@](C)(C(=O)O1)[C@H]2[C@@H]3C(=O)O` [Gibberellic acid], for which, in experiment [1], the embryo germination result was “Germination was evoked in all the media”. Further, the true leaf emergence result in experiment [2] is on record as “no true leaf emergence was recorded”.
